From ChEMBL document CHEMBL5331051, “Cationic, amphipathic small molecules based on a triazine-piperazine-triazine scaffold as a new class of antimicrobial agents” (Eur J Med Chem, 2022)
Active and inactive are the calls of the source. The rule behind the calls is not given here.

What was measured:
Cell membrane [1] = assay: Induction of outer membrane permeabilization in Escherichia coli KCTC 1682 assessed as increase in fluorescence intensity at 2 to 8 ug/ml by NPN staining based analysis; conditions: dose 2-8 µg/ml
Lipopolysaccharide (LPS) [2] = assay: Displacement of BODIPY-TR-cadaverine from Escherichia coli O111:B4 lipopolysaccharide assessed as increase in fluorescence at 5 ug/ml by fluorescence based assay; conditions: dose 5.0 µg/ml
Lipopolysaccharide (LPS) [3] = assay: Binding affinity to Escherichia coli O111:B4 lipopolysaccharide assessed as suppression of FTIC labeled LPS binding to mouse RAW264.7 cells at 20 ug/ml pretreated with LPS followed by compound addition by flow cytometer assay (reference value: 67.4%); format: cell-based; conditions: dose 20.0 µg/ml
Cell membrane [4] = assay: Induction of cell membrane depolarization in Staphylococcus aureus assessed as increase in fluorescence intensity at 2 times MIC by DiSC3(5) dye based fluorescence assay
Cell membrane [5] = assay: Induction of cell membrane depolarization in Staphylococcus aureus assessed as fluorescence intensity at 2 to 16 times MIC by DiSC3(5) dye based fluorescence assay; format: subcellular
Cell membrane [6] = assay: Induction of cell membrane depolarization in Staphylococcus aureus assessed as increase in fluorescence intensity at 2 times MIC by SYTOX green staining based analysis
Cell membrane [7] = assay: Induction of inner membrane permeabilization in Escherichia coli ML-35 assessed as increase in […] at 2 times MIC by ONPG staining based analysis
Pseudomonas aeruginosa [8] = assay: Additive antibacterial activity against multidrug-resistant Pseudomonas aeruginosa CCARM 2095 strain assessed as bacterial growth inhibition by checkerboard assay; format: functional
Pseudomonas aeruginosa [9] = assay: Additive antibacterial activity against multidrug-resistant Pseudomonas aeruginosa CCARM 2095 strain assessed as chloramphenicol MIC by checkerboard assay; format: functional
Pseudomonas aeruginosa [10] = assay: Additive antibacterial activity against multidrug-resistant Pseudomonas aeruginosa CCARM 2095 strain assessed as ciprofloxacin MIC by checkerboard assay; format: functional
Pseudomonas aeruginosa [11] = assay: Additive antibacterial activity against multidrug-resistant Pseudomonas aeruginosa CCARM 2095 strain assessed as Oxacillin MIC by checkerboard assay; format: functional
Pseudomonas aeruginosa [12] = assay: Additive antibacterial activity against multidrug-resistant Pseudomonas aeruginosa CCARM 2095 strain assessed as bacterial growth inhibition in presence of chloramphenicol by checkerboard assay; format: functional
Pseudomonas aeruginosa [13] = assay: Additive antibacterial activity against multidrug-resistant Pseudomonas aeruginosa CCARM 2095 strain assessed as bacterial growth inhibition in presence of ciprofloxacin by checkerboard assay; format: functional
Pseudomonas aeruginosa [14] = assay: Additive antibacterial activity against multidrug-resistant Pseudomonas aeruginosa CCARM 2095 strain assessed as bacterial growth inhibition in presence of oxacillin by checkerboard assay; format: functional
Pseudomonas aeruginosa [15] = assay: Additive antibacterial activity against multidrug-resistant Pseudomonas aeruginosa CCARM 2095 strain assessed as chloramphenicol fractional inhibitory concentration by checkerboard assay; format: functional
Pseudomonas aeruginosa [16] = assay: Additive antibacterial activity against multidrug-resistant Pseudomonas aeruginosa CCARM 2095 strain assessed as ciprofloxacin fractional inhibitory concentration by checkerboard assay; format: functional
Pseudomonas aeruginosa [17] = assay: Additive antibacterial activity against multidrug-resistant Pseudomonas aeruginosa CCARM 2095 strain assessed as oxacillin fractional inhibitory concentration by checkerboard assay; format: functional
Pseudomonas aeruginosa [18] = assay: Additive antibacterial activity against multidrug-resistant Pseudomonas aeruginosa CCARM 2095 strain assessed as fractional inhibitory concentration in presence of chloramphenicol by checkerboard assay; format: functional
Pseudomonas aeruginosa [19] = assay: Additive antibacterial activity against multidrug-resistant Pseudomonas aeruginosa CCARM 2095 strain assessed as fractional inhibitory concentration in presence of ciprofloxacin by checkerboard assay; format: functional
Pseudomonas aeruginosa [20] = assay: Additive antibacterial activity against multidrug-resistant Pseudomonas aeruginosa CCARM 2095 strain assessed as fractional inhibitory concentration in presence of oxacillin by checkerboard assay; format: functional
Pseudomonas aeruginosa [21] = assay: Additive antibacterial activity against multidrug-resistant Pseudomonas aeruginosa CCARM 2095 strain assessed as fractional inhibitory concentration index in presence of chloramphenicol by checkerboard assay; format: functional
Pseudomonas aeruginosa [22] = assay: Additive antibacterial activity against multidrug-resistant Pseudomonas aeruginosa CCARM 2095 strain assessed as fractional inhibitory concentration index in presence of ciprofloxacin by checkerboard assay; format: functional
Pseudomonas aeruginosa [23] = assay: Additive antibacterial activity against multidrug-resistant Pseudomonas aeruginosa CCARM 2095 strain assessed as fractional inhibitory concentration index in presence of oxacillin by checkerboard assay; format: functional
Staphylococcus aureus [24] = assay: Additive antibacterial activity against methicillin-resistant Staphylococcus aureus CCARM 3089 strain assessed as chloramphenicol MIC by checkerboard assay; format: functional
Staphylococcus aureus [25] = assay: Additive antibacterial activity against methicillin-resistant Staphylococcus aureus CCARM 3089 strain assessed as ciprofloxacin MIC by checkerboard assay; format: functional
Staphylococcus aureus [26] = assay: Additive antibacterial activity against methicillin-resistant Staphylococcus aureus CCARM 3089 strain assessed as oxacillin MIC by checkerboard assay; format: functional
Staphylococcus aureus [27] = assay: Antibacterial activity against methicillin-resistant Staphylococcus aureus CCARM 3089 strain assessed as bacterial growth inhibition by checkerboard assay; format: functional
Staphylococcus aureus [28] = assay: Additive antibacterial activity against methicillin-resistant Staphylococcus aureus CCARM 3089 strain assessed as bacterial growth inhibition in presence of chloramphenicol by checkerboard assay; format: functional
Staphylococcus aureus [29] = assay: Additive antibacterial activity against methicillin-resistant Staphylococcus aureus CCARM 3089 strain assessed as bacterial growth inhibition in presence of ciprofloxacin by checkerboard assay; format: functional
Staphylococcus aureus [30] = assay: Additive antibacterial activity against methicillin-resistant Staphylococcus aureus CCARM 3089 strain assessed as bacterial growth inhibition in presence of oxacillin by checkerboard assay; format: functional
Staphylococcus aureus [31] = assay: Additive antibacterial activity against multidrug-resistant Staphylococcus aureus CCARM 3089 strain assessed as fractional inhibitory concentration index in presence of ciprofloxacin by checkerboard assay; format: functional
Staphylococcus aureus [32] = assay: Additive antibacterial activity against multidrug-resistant Staphylococcus aureus CCARM 3089 strain assessed as fractional inhibitory concentration index in presence of chloramphenicol by checkerboard assay; format: functional
Pseudomonas aeruginosa [33] = assay: Antibiofilm activity against multidrug-resistant Pseudomonas aeruginosa assessed as inhibition of biofilm formation; format: functional
Lipopolysaccharide (LPS) [34] = assay: Binding affinity to Escherichia coli O111:B4 lipopolysaccharide assessed as suppression of FTIC labeled LPS binding to mouse RAW264.7 cells at 20 ug/ml pretreated LPS with cells for 1 hr followed by compound addition measured after 1 hr by flow cytometer assay (reference value: 48.12%); format: cell-based; conditions: dose 20.0 µg/ml
Pseudomonas aeruginosa [35] = assay: Antibiofilm activity against multidrug-resistant Pseudomonas aeruginosa assessed as biofilm eradication; format: functional

**Q.** Which Activity (Cell membrane [1]) does the source give for `CC[C@H](C)[C@H](NC(=O)[C@H](CCCCN)NC(=O)[C@H](CCC(=O)O)NC(=O)[C@H](CCCCN)NC(=O)[C@H](CO)NC(=O)[C@H](CCCCN)NC(=O)[C@H](CCCNC(=N)N)NC(=O)[C@H](Cc1ccccc1)NC(=O)[C@H](Cc1ccccc1)NC(=O)[C@H](CC(=O)O)NC(=O)CNC(=O)[C@H](CC(C)C)NC(=O)[C@@H](N)CC(C)C)C(=O)NCC(=O)N[C@@H](CCCCN)C(=O)N[C@@H](CCC(=O)O)C(=O)N[C@@H](Cc1ccccc1)C(=O)N[C@@H](CCCCN)C(=O)N[C@@H](CCCNC(=N)N)C(=O)N[C@H](C(=O)N[C@H](C(=O)N[C@@H](CCC(N)=O)C(=O)N[C@@H](CCCNC(=N)N)C(=O)N[C@H](C(=O)N[C@@H](CCCCN)C(=O)N[C@@H](CC(=O)O)C(=O)N[C@@H](Cc1ccccc1)C(=O)N[C@@H](CC(C)C)C(=O)N[C@@H](CCCNC(=N)N)C(=O)N[C@@H](CC(N)=O)C(=O)N[C@@H](CC(C)C)C(=O)N[C@H](C(=O)N1CCC[C@H]1C(=O)N[C@@H](CCCNC(=N)N)C(=O)N[C@H](C(=O)N[C@@H](CCC(=O)O)C(=O)N[C@@H](CO)C(=O)O)[C@@H](C)O)C(C)C)[C@@H](C)CC)C(C)C)[C@@H](C)CC` [CATHELICIDIN] here?
**A.** The Activity was “Active”.

**Q.** What about the Activity (Lipopolysaccharide (LPS) [2]) of the same molecule?
**A.** The Activity was “inactive”.

**Q.** What about the Flu intensity (Lipopolysaccharide (LPS) [3]) of the same molecule?
**A.** The Flu intensity was 10.4%.

**Q.** And the Activity (Cell membrane [4])?
**A.** Its Activity is “Active”.

**Q.** And the Activity (Cell membrane [5])?
**A.** The Activity was “inactive”.

**Q.** And the Activity (Cell membrane [6])?
**A.** Its Activity is “Active”.

**Q.** What about the Activity (Cell membrane [7]) of the same molecule?
**A.** Its Activity is “Active”.

**Q.** And the MIC (Pseudomonas aeruginosa [8])?
**A.** Its MIC is 32 µg/mL.

**Q.** And the MIC (Pseudomonas aeruginosa [9])?
**A.** The MIC was 512 µg/mL.

**Q.** What about the MIC (Pseudomonas aeruginosa [10]) of the same molecule?
**A.** Its MIC is 256 µg/mL.

**Q.** What about the MIC (Pseudomonas aeruginosa [11]) of the same molecule?
**A.** The MIC was 512 µg/mL.

**Q.** And the MIC (Pseudomonas aeruginosa [12])?
**A.** Its MIC is 16 µg/mL.

**Q.** What about the MIC (Pseudomonas aeruginosa [13]) of the same molecule?
**A.** Its MIC is 16 µg/mL.

**Q.** What about the MIC (Pseudomonas aeruginosa [14]) of the same molecule?
**A.** The MIC was 8 µg/mL.

**Q.** What about the FIC (Pseudomonas aeruginosa [15]) of the same molecule?
**A.** The FIC was 0.5.

**Q.** What about the FIC (Pseudomonas aeruginosa [16]) of the same molecule?
**A.** The FIC was 0.25.

**Q.** What about the FIC (Pseudomonas aeruginosa [17]) of the same molecule?
**A.** The FIC was 0.5.

**Q.** And the FIC (Pseudomonas aeruginosa [18])?
**A.** Its FIC is 0.5.

**Q.** And the FIC (Pseudomonas aeruginosa [19])?
**A.** Its FIC is 0.5.

**Q.** And the FIC (Pseudomonas aeruginosa [20])?
**A.** Its FIC is 0.25.

**Q.** What about the “fractional inhibitory concentration index (FICI)” value (Pseudomonas aeruginosa [21]) of the same molecule?
**A.** Its value is 1.

**Q.** What about the “fractional inhibitory concentration index (FICI)” value (Pseudomonas aeruginosa [22]) of the same molecule?
**A.** Its value is 0.75.

**Q.** What about the “fractional inhibitory concentration index (FICI)” value (Pseudomonas aeruginosa [23]) of the same molecule?
**A.** Its value is 0.75.

**Q.** What about the MIC (Staphylococcus aureus [24]) of the same molecule?
**A.** The MIC was 64 µg/mL.

**Q.** What about the MIC (Staphylococcus aureus [25]) of the same molecule?
**A.** The MIC was 128 µg/mL.

**Q.** And the MIC (Staphylococcus aureus [26])?
**A.** Its MIC is 256 µg/mL.

**Q.** And the MIC (Staphylococcus aureus [27])?
**A.** Its MIC is 64 µg/mL.

**Q.** And the MIC (Staphylococcus aureus [28])?
**A.** Its MIC is 32 µg/mL.

**Q.** What about the MIC (Staphylococcus aureus [29]) of the same molecule?
**A.** Its MIC is 32 µg/mL.

**Q.** What about the MIC (Staphylococcus aureus [30]) of the same molecule?
**A.** The MIC was 32 µg/mL.

**Q.** And the “fractional inhibitory concentration index (FICI)” value (Staphylococcus aureus [31])?
**A.** The value was 0.75.

**Q.** And the “fractional inhibitory concentration index (FICI)” value (Staphylococcus aureus [32])?
**A.** Its value is 0.675.

**Q.** What about the MBEC50 (Pseudomonas aeruginosa [33]) of the same molecule?
**A.** The MBEC50 was 14.2 µM.

**Q.** What about the MBEC90 (Pseudomonas aeruginosa [33]) of the same molecule?
**A.** The MBEC90 was 28.5 µM.

**Q.** What about the MBIC (Pseudomonas aeruginosa [33]) of the same molecule?
**A.** Its MBIC is greater than 7 µM.

**Q.** What about the MBIC50 (Pseudomonas aeruginosa [33]) of the same molecule?
**A.** Its MBIC50 is 3.6 µM.

**Q.** And the Flu intensity (Lipopolysaccharide (LPS) [34])?
**A.** The Flu intensity was 18.3%.

**Q.** And the MBEC50 (Pseudomonas aeruginosa [35])?
**A.** Its MBEC50 is 14.2 µM.

**Q.** What about the MBEC90 (Pseudomonas aeruginosa [35]) of the same molecule?
**A.** Its MBEC90 is 28.5 µM.
